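96-well plates; 48 h exposure; 5 concentrations. Endpoints by linear interpolation between flanking doses. Not reached: highest tested concentration assigned. TGI: concentration producing complete growth inhibition.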
Columns and labels:
Test in all cases: NCI tumour cell line growth inhibition, 48 h
KM20L2 colon = tested on: KM20L2 colon
LOX IMVI melanoma = tested on: LOX IMVI melanoma
HT29 colon = tested on: HT29 colon
NCI-H226 lung = tested on: NCI-H226 lung
KM12 colon = tested on: KM12 colon
OVCAR-3 ovarian = tested on: OVCAR-3 ovarian
OVCAR-8 ovarian = tested on: OVCAR-8 ovarian
SK-MEL-5 melanoma = tested on: SK-MEL-5 melanoma
SN12K1 renal = tested on: SN12K1 renal
P388 leukemia = tested on: P388 leukemia
U251 CNS = tested on: U251 CNS
MOLT-4 leukemia = tested on: MOLT-4 leukemia
SNB-78 CNS = tested on: SNB-78 CNS
MALME-3M melanoma = tested on: MALME-3M melanoma
DMS 114 small cell lung = tested on: DMS 114 small cell lung
RXF 393 renal = tested on: RXF 393 renal
OVCAR-5 ovarian = tested on: OVCAR-5 ovarian
CCRF-CEM leukemia = tested on: CCRF-CEM leukemia
HOP-92 NSCLC = tested on: HOP-92 NSCLC
M19-MEL melanoma = tested on: M19-MEL melanoma
HL-60(TB) leukemia = tested on: HL-60(TB) leukemia
OVCAR-4 ovarian = tested on: OVCAR-4 ovarian
DLD-1 colon = tested on: DLD-1 colon
UACC-257 melanoma = tested on: UACC-257 melanoma
A549 NSCLC = tested on: A549 NSCLC
RPMI-8226 leukemia = tested on: RPMI-8226 leukemia
SN12C renal = tested on: SN12C renal
CAKI-1 renal = tested on: CAKI-1 renal
SK-MEL-28 melanoma = tested on: SK-MEL-28 melanoma
NCI/ADR-RES ovarian = tested on: NCI/ADR-RES ovarian
MCF7 breast = tested on: MCF7 breast
DMS 273 small cell lung = tested on: DMS 273 small cell lung
HCC-2998 colon = tested on: HCC-2998 colon
SF-295 CNS = tested on: SF-295 CNS
NCI-H460 lung = tested on: NCI-H460 lung
K-562 leukemia = tested on: K-562 leukemia
EKVX NSCLC = tested on: EKVX NSCLC
P388/ADR leukemia = tested on: P388/ADR leukemia
UO-31 renal = tested on: UO-31 renal
SW-620 colon = tested on: SW-620 colon
HOP-62 NSCLC = tested on: HOP-62 NSCLC
UACC-62 melanoma = tested on: UACC-62 melanoma
SNB-75 CNS = tested on: SNB-75 CNS
HCT-116 colon = tested on: HCT-116 colon
A498 renal = tested on: A498 renal
SK-OV-3 ovarian = tested on: SK-OV-3 ovarian
IGROV1 ovarian = tested on: IGROV1 ovarian
HCT-15 colon = tested on: HCT-15 colon
COLO 205 colon = tested on: COLO 205 colon
SK-MEL-2 melanoma = tested on: SK-MEL-2 melanoma
SF-268 CNS = tested on: SF-268 CNS
SNB-19 CNS = tested on: SNB-19 CNS
NCI-H23 lung = tested on: NCI-H23 lung
NCI-H522 lung = tested on: NCI-H522 lung
HOP-18 NSCLC = tested on: HOP-18 NSCLC
SF-539 CNS = tested on: SF-539 CNS

## O=NN1C(c2ccccc2)CNC(=O)CC1c1ccccc1 (stereo unspecified)
KM20L2 colon
  TGI: 63.5 µM
LOX IMVI melanoma
  TGI: > 100 µM
HT29 colon
  TGI: > 100 µM
NCI-H226 lung
  TGI: > 100 µM
KM12 colon
  TGI: > 100 µM
OVCAR-3 ovarian
  TGI: > 92.7 µM
OVCAR-8 ovarian
  TGI: > 100 µM
SK-MEL-5 melanoma
  TGI: > 93.1 µM
SN12K1 renal
  TGI: > 100 µM
P388 leukemia
  TGI: 62.3 µM
U251 CNS
  TGI: > 100 µM
MOLT-4 leukemia
  TGI: > 93 µM
SNB-78 CNS
  TGI: > 100 µM
MALME-3M melanoma
  TGI: > 100 µM
DMS 114 small cell lung
  TGI: 59.3 µM
RXF 393 renal
  TGI: 81.1 µM
OVCAR-5 ovarian
  TGI: > 100 µM
CCRF-CEM leukemia
  TGI: > 100 µM
HOP-92 NSCLC
  TGI: > 100 µM
M19-MEL melanoma
  TGI: > 100 µM
HL-60(TB) leukemia
  TGI: > 68.8 µM
OVCAR-4 ovarian
  TGI: > 100 µM
DLD-1 colon
  TGI: > 100 µM
UACC-257 melanoma
  TGI: > 100 µM
A549 NSCLC
  TGI: > 100 µM
RPMI-8226 leukemia
  TGI: > 100 µM
SN12C renal
  TGI: > 100 µM
CAKI-1 renal
  TGI: > 100 µM
SK-MEL-28 melanoma
  TGI: > 100 µM
NCI/ADR-RES ovarian
  TGI: > 64.6 µM
MCF7 breast
  TGI: > 100 µM
DMS 273 small cell lung
  TGI: > 100 µM
HCC-2998 colon
  TGI: > 100 µM
SF-295 CNS
  TGI: 98.8 µM
NCI-H460 lung
  TGI: > 100 µM
K-562 leukemia
  TGI: > 100 µM
EKVX NSCLC
  TGI: > 100 µM
P388/ADR leukemia
  TGI: 63.5 µM
UO-31 renal
  TGI: > 83.6 µM
SW-620 colon
  TGI: > 100 µM
HOP-62 NSCLC
  TGI: > 100 µM
UACC-62 melanoma
  TGI: > 100 µM
SNB-75 CNS
  TGI: > 67.9 µM
HCT-116 colon
  TGI: > 100 µM
A498 renal
  TGI: > 100 µM
SK-OV-3 ovarian
  TGI: > 89 µM
IGROV1 ovarian
  TGI: > 100 µM
HCT-15 colon
  TGI: > 100 µM
COLO 205 colon
  TGI: 69.8 µM
SK-MEL-2 melanoma
  TGI: > 80 µM
SF-268 CNS
  TGI: > 100 µM
SNB-19 CNS
  TGI: > 93.2 µM
NCI-H23 lung
  TGI: 97.9 µM
NCI-H522 lung
  TGI: 46.8 µM
HOP-18 NSCLC
  TGI: > 100 µM
SF-539 CNS
  TGI: 96.1 µM

— PubChem BioAssay (NCI)
